# Reference: patent US20060287320A1, “Preparation of thioarabinofuranosyl compounds and use thereof” (Southern Research Institute, priority 1998, published 2006)
# Legend:
# SC HCT-116 Colon Tumor = assay: Response of SC HCT-116 Colon Tumor to Treatment; assay type: in vivo; details: Q 1D × 9 day 6
# Description: (§1) The following in vivo tests were carried out to illustrate the effectiveness of the compounds of the present invention.
# SC CAKI-1 Renal Tumor = assay: Response of SC CAKI-1 Renal Tumor to Treatment; assay type: in vivo
# Description: as §1
# SC Colon 36 Tumor = assay: Response of SC Colon 36 Tumor to Treatment; assay type: in vivo; details: 18 Mg/Kg IP, Q 1D × 9 day 9
# Description: as §1
# CEM cells [1] = assay: Initial half-life of triphosphates in CEM cells; assay type: cell-based; details: CEM cells after 1 hour with 100 nM radiolabeled nucleoside, then fresh medium; 5′-triphosphate peak
# Description: Samples were collected at various times after the cells were resuspended in fresh medium, and the amount of radioactivity in the 5'-triphosphate peak was determined using SAX HPLC. The data presented are the mean and standard deviation from 3 separate experiments.
# CEM cells [2] = assay: Retention of araCTP and T-araCTP in CEM cells (FIG. 2); assay type: cell-based
# Description: […]. Samples were collected at various times after the cells were resuspended in fresh medium, and the amount of radioactivity in the 5′-triphosphate peak was determined using SAX HPLC. In this experiment there was 0.639 pmoles araCTP/10^6 cells and 0.246 pmoles of T-araCTP after the 1 hour incubation with radiolabeled compound.
smiles,measurement,setting,value
CCCCCCCCCCCCCCCC(=O)Nc1ccn([C@@H]2O[C@H](CO)[C@@H](O)[C@@H]2O)c(=O)n1 [Palmo-ARA-C],Days Delay (T − C),SC HCT-116 Colon Tumor; 15 Mg/Kg IP,6.0 days
same,Days to 2 Doubling,SC HCT-116 Colon Tumor; 15 Mg/Kg IP,14.9 days
same,Non-Specific Deaths/Total,SC HCT-116 Colon Tumor; 15 Mg/Kg IP,0/6
same,Tumor Free Surv/Total,SC HCT-116 Colon Tumor; 15 Mg/Kg IP,0/6
same,Tumor Regression Number of Complete,SC HCT-116 Colon Tumor; 15 Mg/Kg IP,0
same,Tumor Regression Number of Partial,SC HCT-116 Colon Tumor; 15 Mg/Kg IP,0
same,Days Delay (T − C),SC HCT-116 Colon Tumor; 22.5 Mg/Kg IP,15.1 days
same,Days to 2 Doubling,SC HCT-116 Colon Tumor; 22.5 Mg/Kg IP,24.0 days
same,Non-Specific Deaths/Total,SC HCT-116 Colon Tumor; 22.5 Mg/Kg IP,0/6
same,Tumor Free Surv/Total,SC HCT-116 Colon Tumor; 22.5 Mg/Kg IP,0/6
same,Tumor Regression Duration Med,SC HCT-116 Colon Tumor; 22.5 Mg/Kg IP,24.2 days
same,Tumor Regression Duration Range (Days),SC HCT-116 Colon Tumor; 22.5 Mg/Kg IP,24-24 Days
same,Tumor Regression Number of Complete,SC HCT-116 Colon Tumor; 22.5 Mg/Kg IP,1
same,Tumor Regression Number of Partial,SC HCT-116 Colon Tumor; 22.5 Mg/Kg IP,0
same,Days Delay (T − C),"SC CAKI-1 Renal Tumor; 22.5 Mg/Kg IP, 0 1D × 9 day 7",26.5 days
same,Days to 3 Doubling,"SC CAKI-1 Renal Tumor; 22.5 Mg/Kg IP, 0 1D × 9 day 7",36.0 days
same,Non-Specific Deaths/Total,"SC CAKI-1 Renal Tumor; 22.5 Mg/Kg IP, 0 1D × 9 day 7",1/6
same,Tumor Free Surv/Total,"SC CAKI-1 Renal Tumor; 22.5 Mg/Kg IP, 0 1D × 9 day 7",0/6
same,Tumor Regression Duration Med,"SC CAKI-1 Renal Tumor; 22.5 Mg/Kg IP, 0 1D × 9 day 7",9.1 days
same,Tumor Regression Duration Range (Days),"SC CAKI-1 Renal Tumor; 22.5 Mg/Kg IP, 0 1D × 9 day 7",9-9 Days
same,Tumor Regression Number of Complete,"SC CAKI-1 Renal Tumor; 22.5 Mg/Kg IP, 0 1D × 9 day 7",1
same,Tumor Regression Number of Partial,"SC CAKI-1 Renal Tumor; 22.5 Mg/Kg IP, 0 1D × 9 day 7",0
same,Days Delay (T − C),"SC CAKI-1 Renal Tumor; 45 Mg/Kg IP, Q 1D × 5 day 7",31.7 days
same,Days to 3 Doubling,"SC CAKI-1 Renal Tumor; 45 Mg/Kg IP, Q 1D × 5 day 7",41.2 days
same,Non-Specific Deaths/Total,"SC CAKI-1 Renal Tumor; 45 Mg/Kg IP, Q 1D × 5 day 7",4/6
same,Toxicity remark under Days Delay (T − C),"SC CAKI-1 Renal Tumor; 45 Mg/Kg IP, Q 1D × 5 day 7",(Toxic)
same,Tumor Free Surv/Total,"SC CAKI-1 Renal Tumor; 45 Mg/Kg IP, Q 1D × 5 day 7",0/6
same,Tumor Regression Number of Complete,"SC CAKI-1 Renal Tumor; 45 Mg/Kg IP, Q 1D × 5 day 7",0
same,Tumor Regression Number of Partial,"SC CAKI-1 Renal Tumor; 45 Mg/Kg IP, Q 1D × 5 day 7",0
same,Days Delay (T − C),SC Colon 36 Tumor,>38.5 days
same,Days to 2 Doubling,SC Colon 36 Tumor,>49.0 days
same,Non-Specific Deaths/Total,SC Colon 36 Tumor,0/5
same,Tumor Free Surv/Total,SC Colon 36 Tumor,4/5
same,Tumor Regression Duration Med,SC Colon 36 Tumor,34.6 days
same,Tumor Regression Duration Range (Days),SC Colon 36 Tumor,35-35 Days
same,Tumor Regression Number of Complete,SC Colon 36 Tumor,5
same,Tumor Regression Number of Partial,SC Colon 36 Tumor,0
Nc1ccn([C@H]2C[C@H](O)[C@@H](COP(=O)(O)OP(=O)(O)OP(=O)(O)O)O2)c(=O)n1 [dCTP],"Initial Half-Life, Hours (SD)",CEM cells [1],0.94 ± 0.16 h
Nc1ccn(C2SC(COP(=O)(O)OP(=O)(O)OP(=O)(O)O)C(O)C2O)c(=O)n1 (centres unmarked) [T-araCTP],T-araCTP after the 1 hour incubation,CEM cells [2],0.246 pmol
same,"Initial Half-Life, Hours (SD)",CEM cells [1],10.8 ± 1.80 h
Nc1ccn(C2CC(O)C(COP(=O)(O)OP(=O)(O)OP(=O)(O)O)S2)c(=O)n1 (centres unmarked) [T-dCTP],"Initial Half-Life, Hours (SD)",CEM cells [1],1.10 ± 0.35 h
